Data reported in patent US5567716A, “Trans and cis traumatic acid salts having cicatrizant activity associated to bacteriostatic, antiviral, antibiotic or antifungal activity” (priority 1992, dated 1996).

Assays:
[1] = Physical chemical characteristics: solubility in water and organic solvents
PS Maltophila ATCC.13637 = test: Antibacterial activity, diffusion method in agar-germs (2.a); type: cell-based
Protocol: (§1) In a Tryprone Soy Agar diffusion medium ATCC (American Type Culture Collection) standard bacterial strains are inoculated, preparing a final solution of 10^6 cfu/g (colony forming unities) of the following strains:
(§2) Every plate contains 20 ml of a medium where 2 equidistant wells having a standard diameter are Formed and in each of these wells […] of the above described bacterial solution are inoculated. 2 plates are prepared for every couple of compounds to be tested at different concentrations, and For every strain, and each of these plates is compared with a white (sterile demineralized water inoculum). After the inoculum, the plates are placed in the refrigerator to favour diffusion and temporaneously blocking bacterial growth.
(§3) The compounds hexadecyltrimethylammonium traumatate and benzyldimethylhexadecylammonium traumatare respectively versus hexadecyl trimethylammonium bromide and benzyldimethylhexadecylammonium chloride are solubilized in demineralized water to Form solutions at the concentrations: 0.1; 0.5; and 1%.
(§4) The antibacterial effect is evaluated by measuring bacterial diffusion halo around the well vs white (halo absence).

E. Coli ATCC.35218 = test: as above; type: cell-based
Protocol: as §1, §2, §3, §4

[2] = tested on: Pseudomonas Aeruginosa ATCC.35422; test: as above; type: cell-based
Protocol: as §1, §2, §3, §4

PS Cepacia ATCC.25416 = test: as above; type: cell-based; parameters: unit not given here
Protocol: as §1, §2, §3, §4

[3] = tested on: Candida Albicans ATCC.10231; test: as above; type: cell-based; parameters: unit not given here
Protocol: as §1, §2, §3, §4

[4] = tested on: Aspergillus Niger ATCC 16404; test: as above; type: cell-based; parameters: unit not given here
Protocol: as §1, §2, §3, §4

[5] = tested on: Streptococcus Fecalis ATCC.291212; test: as above; type: cell-based; parameters: unit not given here
Protocol: as §1, §2, §3, §4

[6] = tested on: Stafilococcus Aureus ATCC.65380; test: as above; type: cell-based; parameters: unit not given here
Protocol: as §1, §2, §3, §4

[7] = tested on: Stafilococcus Epidermidis ATCC.14990; test: as above; type: cell-based; parameters: unit not given here
Protocol: as §1, §2, §3, §4

3T3 fibroblasts = test: Cellular proliferation of 3T3 fibroblasts, neutral red colorimetry (1.1a); type: cell-based, Mice
Protocol: Experiments on 3T3 fibroblasts
Mice 3T3 fibroblasts cultures sown at a 40.000/ml concentration on plates having 6 wells in a DMEM culture medium enriched with 10% calf serum are used. After 24 hours culture, the 90 prepared wells are divided in order to allow the analyses of the compounds of the invention, every compound to be tested being used respectively at a concentration of 0.1, 1 and 10 μg/ml by subsequent evaluations after 48 and 72 hours of incubation.
Hexadecyltrimethylammoniun (ETA) traumatare: solubilized in water and brought to the desired final concentrations of 0.1. 1 and 10 μg/ml by progressive dilutions;
Ethanolamine traumatate: solubilized in water and brought to the final concentrations of 0.1, 1 and 10 μg/ml by progressive dilutions;
Traumatic acid: neutralized with sodium hydroxyde and solubilized in water, then brought to the final concentrations of 0.1, 1 and 10 μg/ml by progressive dilutions with the culture medium.
The compounds are added to the cells after 24 hours culture. The cells number is measured by colorimetry with the neutral red intravital stain after 24, 48, 72 hours of incubation.

Clc1ccc(COC(C[n+]2cc[nH]c2)c2ccc(Cl)cc2Cl)c(Cl)c1.Clc1ccc(COC(C[n+]2cc[nH]c2)c2ccc(Cl)cc2Cl)c(Cl)c1.O=C([O-])/C=C/CCCCCCCCC(=O)[O-] (racemic) [miconazole trans-traumatate]
organic solvent solubility ([1]; in ethanol): > 10000 µg/mL | solubility in water ([1]; water): > 10000 µg/mL

CCCCCCCCCCCCCCCC[N+](C)(C)Cc1ccccc1.[Cl-] [BMA Chloride, benzyldimethylhexadecylammonium chloride, reference compound]
bacterial diffusion halo (PS Maltophila ATCC.13637; sol. 0.1%): n.h. | bacterial diffusion halo (PS Maltophila ATCC.13637; sol. 0.5%): n.h. | bacterial diffusion halo (PS Maltophila ATCC.13637; sol. 1%): 15 | bacterial diffusion halo (E. Coli ATCC.35218; sol. 0.1%): n.h. | bacterial diffusion halo (E. Coli ATCC.35218; sol. 0.5%): n.h. | bacterial diffusion halo (E. Coli ATCC.35218; sol. 1%): 13 | bacterial diffusion halo ([2]; sol. 0.1%): n.h. | bacterial diffusion halo ([2]; sol. 0.5%): 12 | bacterial diffusion halo ([2]; sol. 1%): 14 | bacterial diffusion halo (PS Cepacia ATCC.25416; sol. 0.1%): 12 | bacterial diffusion halo (PS Cepacia ATCC.25416; sol. 0.5%): 15 | bacterial diffusion halo (PS Cepacia ATCC.25416; sol. 1%): 15 | bacterial diffusion halo ([3]; sol. 0.1%): 13 | bacterial diffusion halo ([3]; sol. 0.5%): 15 | bacterial diffusion halo ([3]; sol. 1%): 16 | bacterial diffusion halo ([4]; sol. 0.1%): 13 | bacterial diffusion halo ([4]; sol. 0.5%): 16 | bacterial diffusion halo ([4]; sol. 1%): 19 | bacterial diffusion halo ([5]; sol. 0.1%): 12 | bacterial diffusion halo ([5]; sol. 0.5%): 14 | bacterial diffusion halo ([5]; sol. 1%): 15 | bacterial diffusion halo ([6]; sol. 0.1%): 17 | bacterial diffusion halo ([6]; sol. 0.5%): 22 | bacterial diffusion halo ([6]; sol. 1%): 22 | bacterial diffusion halo ([7]; sol. 0.1%): 15 | bacterial diffusion halo ([7]; sol. 0.5%): 18 | bacterial diffusion halo ([7]; sol. 1%): 19

CCCCCCCCCCCCCCCC[N+](C)(C)C.[Br-] [ETA Bromide, hexadecyltrimethylammonium bromide, reference compound]
bacterial diffusion halo (PS Maltophila ATCC.13637; sol. 0.1%): n.h. | bacterial diffusion halo (PS Maltophila ATCC.13637; sol. 0.5%): 15 | bacterial diffusion halo (PS Maltophila ATCC.13637; sol. 1%): 21 | bacterial diffusion halo (E. Coli ATCC.35218; sol. 0.1%): n.h. | bacterial diffusion halo (E. Coli ATCC.35218; sol. 0.5%): 13 | bacterial diffusion halo (E. Coli ATCC.35218; sol. 1%): 15 | bacterial diffusion halo ([2]; sol. 0.1%): n.h. | bacterial diffusion halo ([2]; sol. 0.5%): n.h. | bacterial diffusion halo ([2]; sol. 1%): n.h. | bacterial diffusion halo (PS Cepacia ATCC.25416; sol. 0.1%): 18 | bacterial diffusion halo (PS Cepacia ATCC.25416; sol. 0.5%): 19 | bacterial diffusion halo (PS Cepacia ATCC.25416; sol. 1%): 22 | bacterial diffusion halo ([3]; sol. 0.1%): 19 | bacterial diffusion halo ([3]; sol. 0.5%): 24 | bacterial diffusion halo ([3]; sol. 1%): 25 | bacterial diffusion halo ([4]; sol. 0.1%): 19 | bacterial diffusion halo ([4]; sol. 0.5%): 22 | bacterial diffusion halo ([4]; sol. 1%): 22 | bacterial diffusion halo ([5]; sol. 0.1%): 20 | bacterial diffusion halo ([5]; sol. 0.5%): 22 | bacterial diffusion halo ([5]; sol. 1%): 22 | bacterial diffusion halo ([6]; sol. 0.1%): 21 | bacterial diffusion halo ([6]; sol. 0.5%): 24 | bacterial diffusion halo ([6]; sol. 1%): 24 | bacterial diffusion halo ([7]; sol. 0.1%): 20 | bacterial diffusion halo ([7]; sol. 0.5%): 22 | bacterial diffusion halo ([7]; sol. 1%): 22

NCCO.O=C(O)/C=C/CCCCCCCCC(=O)O [ethanolamine traumatate, ethanolamine trans-traumatate]
effect on cells proliferation (3T3 fibroblasts; 0.1 μg/ml, in words): able to affect cells proliferation according to a not statistically significant trend | effect on cellular proliferation (3T3 fibroblasts; 1 μg/ml, in words, ETA salt > ethanolamine salt = traumatic acid): able to increase cellular proliferation | cells numeration (colorimetric, neutral red) (3T3 fibroblasts; 24 hours of incubation, 0.1 (head: μg/ml), control 0.579 ± 0.021): 0.562 ± 0.013 | cells numeration (colorimetric, neutral red) (3T3 fibroblasts; 24 hours of incubation, 1.0 (head: μg/ml), control 0.579 ± 0.021): 0.609 ± 0.033 | cells numeration (colorimetric, neutral red) (3T3 fibroblasts; 24 hours of incubation, 10.0 (head: μg/ml), control 0.579 ± 0.021): 0.553 ± 0.027 | cells numeration (colorimetric, neutral red) (3T3 fibroblasts; 48 hours of incubation, 0.1 (head: μg/ml), control 1.334 ± 0.050): 1.415 ± 0.106 | cells numeration (colorimetric, neutral red) (3T3 fibroblasts; 48 hours of incubation, 1.0 (head: μg/ml), control 1.334 ± 0.050): 1.435 ± 0.082 | cells numeration (colorimetric, neutral red) (3T3 fibroblasts; 48 hours of incubation, 10.0 (head: μg/ml), control 1.334 ± 0.050, ** p < 0.01 significant reduction): 1.415 ± 0.132 | cells numeration (colorimetric, neutral red) (3T3 fibroblasts; 72 hours of incubation, 0.1 (head: μg/ml), control 2.360 ± 0.125): 2.382 ± 0.039 | cells numeration (colorimetric, neutral red) (3T3 fibroblasts; 72 hours of incubation, 1.0 (head: μg/ml), control 2.360 ± 0.125): 2.463 ± 0.100 | cells numeration (colorimetric, neutral red) (3T3 fibroblasts; 72 hours of incubation, 10.0 (head: μg/ml), control 2.360 ± 0.125, ** p < 0.01 significant reduction): 2.408 ± 0.085 | time necessary for the cells to reach the confluence (3T3 fibroblasts; side control experiment, ETA and ethanolamine salts > traumatic acid): reduce the time normally necessary for the cells to reach the confluence | solubility ([1]; ethanol, organic solvent or mixture): > 10000 µg/mL | solubility ([1]; water): > 10000 µg/mL
